From patent US10016424B2, “Method and pharmaceutical composition for use in the treatment of epilepsy” (INSERM (Institut National de la Sante et de la Recherche …, priority 2013, dated 2018)

Key:
[1] = test system: pilocarpine-status epilepticus model of chronic TLE; assay: Interictal spikes, in vivo local field potential recordings in DG of anesthetized pilocarpine-treated mice; set-up: species or system mouse
Procedure: All experiments were approved by the Institut National de la Santé et de la Recherche Médicale animal care and use committee of May 29, 2001 (2001-464) and the European community council directive of Nov. 24, 1986 (86/609/EEC). Mice (FVB/N background) had access to food and water ad libitum and were housed under a 12 h light/dark cycle at 22-24° C. Male GluK2−/− and WT mice (P60-80) were given scopolamine (1 mg/kg) subcutaneously (s.c.) 15 minutes prior to s.c. administration of pilocarpine (200-600 mg/kg). A ramp protocol was used whereby animals were given an initial dose of 200 mg/kg followed by half-doses every 30 minutes until seizures appeared. Both WT and GluK2−/− mice typically experienced at least two seizures prior to entering status epilepticus (SE). Diazepam (10 mg/kg) was administered 45 minutes after onset of SE.
Naïve wildtype (WT) and pilocarpine-treated WT or GluK2−/− mice (5-6 months old) were anaesthetized with xylazine 13 mg/kg/ketamine 66 mg/kg and placed in a stereotaxic frame (supplemental dosing was administered as required). Body temperature was maintained using a heating pad. The scalp was removed and a small bone window was drilled above the hippocampus (2.1 mm posterior to bregma and 1.4 mm lateral to midline over the right hemisphere). For local field potentials recordings performed in anaesthetized mice, a glass electrode ([…]) filled with Ringer solution (135 mM NaCl, 5.4 mM KCl, 1 mM MgCl2, 1.8 mM CaCl2, 5 mM HEPES) was inserted into the DG (depth, 1650 μm). Recordings were performed using a DAM-80 amplifier (low filter, 1 Hz; high filter, 3 KHz; World Precision Instruments, Sarasota, Fla.). UBP310 or vehicle (saline/10% DMSO) was subsequently injected intraperitoneally (i.p.). During recordings and subsequent analysis, the experimenter was blind to the genotype. For intrahippocampal electroencephalographic (EEG) recordings performed in freely-moving animal a stainless steel electrode (Plastic one, Roanoke, Va.) was inserted into the DG under anesthesia (see above). After a 4 day recovery, EEG (amplified (1000×), filtered at 0.16-97 Hz pass, acquired at 500 Hz) was monitored using a telemetric system (Data Sciences International, St. Paul, Minn.) for 4 days, 24 h per day. Intrahippocampal EEG traces represented the difference in potential between the electrode inserted into the DG and an electrode positioned above the cerebellum; food and water were given ad libitum. UBP310 or vehicle (saline/10% DMSO) was injected intraperitoneally twice a day.
In TLE, interictal spikes (ISs) represent one of the best documented biomarkers of epilepsy in patient and animal models (Staley et al., 2005). […]

[2] = test system: dentate gyrus of organotypic slices; assay: Spontaneous interictal-like activity, extracellular field recordings in pilocarpine-treated organotypic hippocampal slice cultures; type: cell-based, mouse
Procedure: Hippocampal/entorhinal cortex slices (350 μm) were prepared from pre-genotyped GluK2−/− and WT mice (P9-10, FVB/N background) using a McIlwain tissue chopper. Slices were placed on mesh inserts (Millipore # PICMORG50) inside culture dishes containing 1 ml of the following medium: MEM 50%, HS 25%, HBSS 25%, HEPES 15 mM glucose 6.5 mg/ml and insulin 0.1 mg/ml. Culture medium was changed every 2-3 days and slices maintained in an incubator at 37° C./5% CO2. Pilocarpine (0.5 μM) was added to the medium at 5 D.I.V and removed at 7 D.I.V; slices were utilized for experiments from 9 D.I.V.
Cultured or acute slices were individually transferred to a recording chamber maintained at 30-32° C. and continuously perfused (2 ml/min) with oxygenated normal or adapted ACSF containing 5 μM gabazine. Local field potentials were made in the granule cell layer of the DG with glass electrodes (2-3 MΩ; filled with normal ACSF) using a DAM-80 amplifier (low filter, 1 Hz; […], 3 KHz; World Precision Instruments, Sarasota, Fla.). For evoked synaptic transmission, electrical stimulation was performed with a bipolar NiCh electrode (#762000, AM systems). Whole-cell voltage-clamp recordings of DGCs were made using tight-seal electrodes (5-8 MΩ) filled with an internal solution containing the following (in mM): 135 gluconic acid, 135 CsOH, 10 MgCl2, 0.1 CaCl2, 1 EGTA, 10 HEPES, 2 MgATP, 0.4 NaGTP, and 0.5% biocytin, pH 7.25. We used a Multiclamp 700B amplifier (Molecular Devices): data were filtered at 2 kHz, digitized (20 kHz) with a Digidata 1440A (Molecular Devices) to a PC, and acquired using Clampex 10.1 software (PClamp, Molecular Devices). Signals were analyzed off-line using Clampfit 9.2 (PClamp) and MiniAnalysis 6.0.1 (Synaptosoft, Decatur, Ga.). In organotypic slices, spontaneous EPSCs were recorded at the reversal potential for GABAergic currents (Vh=−70 mV). To characterize the nature and kinetic properties of fast and slow events, miniature EPSCs (mEPSCs) evoked in Sr2+ conditions (external Ca2+ was substituted with 1.2 mM Sr2+) were recorded in DGCs from GluK2−/− and WT slices. Electrical stimulation was made in the molecular layer in the continued presence of 5 μM gabazine and 40 μM D-APV; asynchronous mEPSCs were measured during the 300 ms period after the stimulus artifact. […] In cultured slices, visual representation of time-frequency analysis of local field potentials was performed using Autosignal software (Seasolve 1.7). In brief, field activity was highpass-filtered (>100 Hz) and time-frequency analysis performed using a continuous wavelet (Morlet) that reported integrated power (time-integral-squared amplitude, TISA) across time. Filtered traces were also analyzed by Fourier analysis (Hamming) using Clampfit 9.2. In acute hippocampal slices, intensity of antidromically-evoked bursts was quantified using coastline index (Epsztein et al., 2005).
The role of KARs in spontaneous epileptiform activity was then tested using extracellular field recordings in cultured slices. Recordings were performed in 5 mM K+-containing ACSF and in the presence of 5 μM gabazine in order to enhance neuronal excitability and to reliably record stereotyped spontaneous interictal-like activity (Berdichevsky et al., 2012).

[3] = test system: dentate gyrus of organotypic slices; assay: as above; type: cell-based, mouse; conditions: P=0.902, n=6
[4] = slices from WT mice, 10 μM SYM2081 or 5 μM UBP310

Cc1cn(C[C@H](N)C(=O)O)c(=O)n(Cc2ccsc2C(=O)O)c1=O [UBP310]
reduction of number of interictal spikes (ISs) ([1]; 60 mg/kg intraperitoneal, WT epileptic mice, anesthetized): 64% | change in IS amplitude ([1]; 60 mg/kg intraperitoneal, WT epileptic mice, data not shown): no change in amplitude | effect on number of ISs in GluK2-/- mice ([1]; 60 mg/kg, GluK2-/- mice, P=0.497): no effect | effect on IS number at dose reduced by 10 times ([1]; injected dose reduced by 10 times from 60 mg/kg, P=0.548): no significant effect | effect on interictal-like activity in GluK2-/- mice slices ([2]; GluK2-/- slices, P=0.563, n=7): no effect | alteration of the PD phase (power of paroxysmal discharge) [2, 4]: No significant alteration | reduction of power of the bursts in the late MB phase [2, 4]: 67% | reduction of frequency of interictal-like activity ([2]; slices from WT mice, 10 μM SYM2081 or 5 μM UBP310, 5 mM K+ ACSF, 5 μM gabazine): 49% | frequency of interictal-like activity ([2]; slices from WT mice, 10 μM SYM2081 or 5 μM UBP310, without antagonist 3.2±0.4, mean±SEM): 1.47±0.4 events/min | reduction of frequency of interictal-like activity in GluK1-/- versus WT mice [3]: similarly effective
